Assay results taken from patent publication US20220053762A1, “HERBICIDAL COMPOSITIONS” (Bayer Aktiengesellschaft, priority 2018, published 2022).

Tested on: harmful plant species
Assay: Specific trial examples: binary compositions applied by the post-emergence method, synergistic effect according to Colby (Tables 3.1-3.2)
Type: in vivo
Conditions: for Herbicidal action 28 DAT [%] against Eleusine indica: g a.i./ha: r337 150, r339 5; for Herbicidal action 28 DAT [%] against Polygonum convulvulus: g a.i./ha: r357 50, r359 5; for Herbicidal action in [%] 28 DAT against Bromus sterilis: g a.i./ha: r617 4, r618 450; for Herbicidal action in [%] 28 DAT against Poa annua L.: g a.i./ha: r721 16, r722 450
Method: When the observed efficacies already exceed the formal sum total of the values of the tests with individual applications, they also exceed the expected value according to Colby, which is calculated using the formula below and is likewise regarded as an indication of synergism (cf. S. R. Colby; in Weeds 15 (1967) p. 20 to 22):
Seeds or rhizome pieces of mono- and dicotyledonous weeds are placed in sandy loam in pots, covered with soil and grown in a greenhouse under good growth conditions (temperature, air humidity, water supply). Three weeks after sowing, the test plants are treated at the three-leaf stage with the compositions according to the invention. The compositions according to the invention formulated as spray powders or as emulsion concentrates are sprayed onto the green plant parts in various dosages with an application rate of 300 to 800 l/ha of water (equivalent).
The sum total of the effects of the individual applications is reported under E^A; Expected values according to Colby are each reported under E^C.
The rating period is reported in days after application (DAT).

[1] = post-emergence, single active compound (A2 series)
[2] = post-emergence, single active compound (A2 series), g a.i./ha: r347 50, r349 5
[3] = post-emergence, single active compound (A5 series)
[4] = post-emergence, single active compound (A5 series), g a.i./ha: r649 1, r650 150
[5] = post-emergence, single active compound (A5 series), g a.i./ha: r659 1, r660 450
[6] = post-emergence, single active compound (A5 series), g a.i./ha: r669 1, r670 450
[7] = post-emergence, single active compound

C[C@]1(C(=O)N[C@H]2CO[C@@H](C(=O)NS(C)(=O)=O)C2)CC(c2cc(F)cc(F)c2)=NO1 (relative stereo) [Compound A2, (5R)-3-(3,5-difluorophenyl)-5-methyl-N-[rel-(3R,5R)-5-(methylsulfonylcarbamoyl)tetrahydrofuran-3-yl]-4H-isoxazole-5-carboxamide]
Herbicidal action 28 DAT against Brachiaria platyphylla (1.7 g a.i./ha): 0% | Herbicidal action 28 DAT against Digitaria sanguinalis (1.7 g a.i./ha): 0% | Herbicidal action 28 DAT against Echinochloa crus-galli (1.7 g a.i./ha): 10% | Herbicidal action 28 DAT against Eleusine indica (1.7 g a.i./ha): 30% | Herbicidal action 28 DAT against Sorghum halepense (1.7 g a.i./ha): 0% | Herbicidal action 28 DAT against Amaranthus palmeri (res.) (5 g a.i./ha): 15% | Herbicidal action 28 DAT against Digitaria sanguinalis (5 g a.i./ha): 0% | Herbicidal action 28 DAT against Echinochloa crus-galli (5 g a.i./ha): 20% | Herbicidal action 28 DAT against Eleusine indica (5 g a.i./ha): 35% | Herbicidal action 28 DAT against Kochia scoparia (5 g a.i./ha): 20% | Herbicidal action 28 DAT against Pharbitis purpurea (5 g a.i./ha): 75% | Herbicidal action 28 DAT against Polygonum convolvulus (5 g a.i./ha): 80% | Herbicidal action 28 DAT against Sorghum halepense (5 g a.i./ha): 0% | Herbicidal action 28 DAT against Amaranthus palmeri (res.) (15 g a.i./ha): 65% | Herbicidal action 28 DAT against Eleusine indica (15 g a.i./ha): 45% | Herbicidal action 28 DAT against Kochia scoparia (15 g a.i./ha): 20% | Herbicidal action 28 DAT against Sorghum halepense (15 g a.i./ha): 15% | Herbicidal action against Abutilon theophrasti ((Z32) 28 DAT, g a.i./ha: r315 270, r316 90, r317 30, r318 15): 20% | Herbicidal action against Bidens pilosa ((Z32) 28 DAT, g a.i./ha: r337 270, r338 90, r339 30, r340 15): 10% | Herbicidal action against Digitaria sanguinalis ((Z32) 28 DAT, g a.i./ha: r361 270, r362 90, r363 30, r364 15): 10% | Herbicidal action against Echinochloa crus-galli ((Z32) 28 DAT, g a.i./ha: r372 270, r373 90, r374 30, r375 5): 20% | Herbicidal action against Kochia scoparia ((Z32) 28 DAT, g a.i./ha: r396 270, r397 90, r398 15, r399 5): 20% | Herbicidal action against Pharbitis purpurea ((Z32) 28 DAT, g a.i./ha: r408 270, r409 90, r410 30, r411 5): 75% | Herbicidal action against Polygonum convolvulus ((Z32) 28 DAT, g a.i./ha: r419 90, r420 30, r421 5): 80% | Herbicidal action 28 DAT [%] against Digitaria sanguinalis (post-emergence, single active compound (A2 series), g a.i./ha: r326 150, r327 50, r328 5, r329 1.7): 0% | Herbicidal action 28 DAT [%] against Eleusine indica [1]: 35% | Herbicidal action 28 DAT [%] against Kochia scoparia [2]: 20% | Herbicidal action 28 DAT [%] against Polygonum convulvulus [1]: 80%

CONC(=O)C1=C[C@@H](NC(=O)[C@@]2(C)CC(c3cc(F)cc(F)c3)=NO2)CO1 [Compound A5, (5R)-3-(3,5-difluorophenyl)-N-[(3R)-5-(methoxycarbamoyl)-2,3-dihydrofuran-3-yl]-5-methyl-4H-isoxazole-5-carboxamide]
Herbicidal action 14 DAT against Lolium rigidum (resistant biotype) (1 g a.i./ha): 10% | Herbicidal action 14 DAT against Matricaria inodora (1 g a.i./ha): 30% | Herbicidal action 14 DAT against Viola tricolor (1 g a.i./ha): 30% | Herbicidal action 28 DAT against Centaurea cyanus (1 g a.i./ha): 10% | Herbicidal action 28 DAT against Galium aparine (1 g a.i./ha): 30% | Herbicidal action 28 DAT against Lamium purpureum L. (1 g a.i./ha): 40% | Herbicidal action 28 DAT against Matricaria inodora (1 g a.i./ha): 0% | Herbicidal action 28 DAT against Viola tricolor (1 g a.i./ha): 0% | Herbicidal action 14 DAT against Lolium rigidum (resistant biotype) (4 g a.i./ha): 20% | Herbicidal action 14 DAT against Matricaria inodora (4 g a.i./ha): 50% | Herbicidal action 14 DAT against Viola tricolor (4 g a.i./ha): 20% | Herbicidal action 28 DAT against Centaurea cyanus (4 g a.i./ha): 20% | Herbicidal action 28 DAT against Matricaria inodora (4 g a.i./ha): 10% | Herbicidal action 28 DAT against Phalaris minor (4 g a.i./ha): 30% | Herbicidal action 28 DAT against Viola tricolor (4 g a.i./ha): 0% | Herbicidal action 14 DAT against Alopecurus myosuroides (16 g a.i./ha): 70% | Herbicidal action 14 DAT against Lolium rigidum (16 g a.i./ha): 60% | Herbicidal action 14 DAT against Lolium rigidum (resistant biotype) (16 g a.i./ha): 30% | Herbicidal action 14 DAT against Matricaria inodora (16 g a.i./ha): 50% | Herbicidal action 14 DAT against Poa annua L. (16 g a.i./ha): 30% | Herbicidal action 28 DAT against Alopecurus myosuroides (16 g a.i./ha): 40% | Herbicidal action 28 DAT against Centaurea cyanus (16 g a.i./ha): 50% | Herbicidal action 28 DAT against Lamium purpureum L. (16 g a.i./ha): 60% | Herbicidal action 28 DAT against Matricaria inodora (16 g a.i./ha): 20% | Herbicidal action 28 DAT against Phalaris minor (16 g a.i./ha): 40% | Herbicidal action 28 DAT against Viola tricolor (16 g a.i./ha): 10% | Herbicidal action against Lolium rigidum ((Z119) 14 DAT, g a.i./ha: r682 16, r683 30): 60% | Herbicidal action against Phalaris minor ((Z119) 14 DAT, g a.i./ha: r709 4, r710 270): 70% | Herbicidal action against Poa annua L. ((Z119) 14 DAT, g a.i./ha: r729 4, r730 270): 20% | Herbicidal action against Alopecurus myosuroides ((Z119) 28 DAT, g a.i./ha: r642 16, r643 4, r644 90, r645 30, r646 270): 40% | Herbicidal action against Centaurea cyanus ((Z119) 28 DAT, g a.i./ha: r654 16, r655 30): 50% | Herbicidal action against Galium aparine ((Z119) 28 DAT, g a.i./ha: r662 1, r663 270): 30% | Herbicidal action against Lolium rigidum ((Z119) 28 DAT, g a.i./ha: r690 16, r691 30): 30% | Herbicidal action in [%] 28 DAT against Alopecurus myosuroides (post-emergence, single active compound (A5 series), g a.i./ha: r591 16, r592 4, r593 450, r594 150, r595 50): 40% | Herbicidal action in [%] 28 DAT against Bromus sterilis [3]: 60% | Herbicidal action in [%] 14 DAT against Galium aparine [4]: 50% | Herbicidal action in [%] 14 DAT against Lamium purpureum L. [5]: 60% | Herbicidal action in [%] 28 DAT against Lamium purpureum L. [6]: 40% | Herbicidal action in [%] 28 DAT against Phalaris minor (post-emergence, single active compound (A5 series), g a.i./ha: r700 16, r701 450, r702 150): 40% | Herbicidal action in [%] 14 DAT against Poa annua L. (post-emergence, single active compound (A5 series), g a.i./ha: r710 16, r711 450, r712 150, r713 50): 30% | Herbicidal action in [%] 28 DAT against Lolium rigidum (post-emergence, single active compound, g a.i./ha: r679 16, r680 150, r681 50): 30% | Herbicidal action in [%] 14 DAT against Lolium rigidum (resistant bio type) (post-emergence, single active compound, g a.i./ha: r689 16, r690 450, r691 150, r692 50): 30% | Herbicidal action in [%] 28 DAT against Poa annua L. [7]: 20%

CP(=O)(O)CCC(N)C(=O)O (stereo not drawn) [(B7.4) Glufosinate]
Herbicidal action 28 DAT [%] against Eleusine indica [1]: 50% | Herbicidal action 28 DAT [%] against Kochia scoparia [2]: 10% | Herbicidal action 28 DAT [%] against Polygonum convulvulus [1]: 30% | Herbicidal action 28 DAT [%] against Kochia scoparia (post-emergence, single active compound (A3 series), g a.i./ha: r384 50, r386 45, r387 15, r388 5): 10% | Herbicidal action in [%] 14 DAT against Galium aparine (post-emergence, single active compound (A4 series), g a.i./ha: r479 16, r480 4, r481 1, r482 150): 30% | Herbicidal action in [%] 28 DAT against Galium aparine (post-emergence, single active compound (A4 series), g a.i./ha: r491 16, r492 50): 30% | Herbicidal action in [%] 14 DAT against Lamium purpureum L. (post-emergence, single active compound (A4 series), g a.i./ha: r501 4, r502 1, r503 450): 80% | Herbicidal action in [%] 28 DAT against Lamium purpureum L. (post-emergence, single active compound (A4 series), g a.i./ha: r512 4, r513 1, r514 450): 60% | Herbicidal action in [%] 28 DAT against Lolium rigidum (resistant bio type) (post-emergence, single active compound (A4 series), g a.i./ha: r523 1, r524 450): 20% | Herbicidal action in [%] 14 DAT against Poa annua L. (post-emergence, single active compound (A4 series), g a.i./ha: r533 16, r534 450): 40% | Herbicidal action in [%] 28 DAT against Bromus sterilis [3]: 10% | Herbicidal action in [%] 14 DAT against Centaurea cyanus (post-emergence, single active compound (A5 series), g a.i./ha: r627 16, r628 1, r629 450, r630 150): 70% | Herbicidal action in [%] 14 DAT against Galium aparine [4]: 30% | Herbicidal action in [%] 14 DAT against Lamium purpureum L. [5]: 80% | Herbicidal action in [%] 28 DAT against Lamium purpureum L. [6]: 60% | Herbicidal action 28 DAT [%] against Setaria faberi (post-emergence, single active compound, g a.i./ha: r40 50, r42 15, r43 5): 10% | Herbicidal action 28 DAT [%] against Setaria viridis (post-emergence, single active compound, g a.i./ha: r51 50, r53 15, r54 5, r55 1.67): 10% | Herbicidal action 28 DAT [%] against Abutilon theophrasti (post-emergence, single active compound, g a.i./ha: r77 450, r79 15, r80 5): 90% | Herbicidal action 28 DAT [%] against Euphorbia heterophylla (post-emergence, single active compound, g a.i./ha: r88 150, r89 50, r90 45, r91 15, r92 5): 15% | Herbicidal action 28 DAT [%] against Bromus sterilis (post-emergence, single active compound, g a.i./ha: r172 5, r173 1.67, r174 450): 30% | Herbicidal action 28 DAT [%] against Galium aparine (post-emergence, single active compound, g a.i./ha: r183 5, r184 50): 0% | Herbicidal action 28 DAT [%] against Lamium purpureum (post-emergence, single active compound, g a.i./ha: r204 45, r205 50): 50% | Herbicidal action 28 DAT [%] against Lolium rigidum (sensitive biotype) (post-emergence, single active compound, g a.i./ha: r214 15, r215 150, r216 50): 0% | Herbicidal action 28 DAT [%] against Lolium rigidum (resistant biotype) (post-emergence, single active compound, g a.i./ha: r224 15, r225 5, r226 150, r227 50): 0% | Herbicidal action 28 DAT [%] against Veronica hederifolia (post-emergence, single active compound, g a.i./ha: r292 5, r293 150): 70% | Herbicidal action 28 DAT [%] against Brachiaria platyphylla (post-emergence, single active compound, g a.i./ha: r314 50, r316 15, r317 5, r318 1.7): 30% | Herbicidal action 28 DAT [%] against Pharbitis purpurea (post-emergence, single active compound, g a.i./ha: r396 50, r398 5): 40% | Herbicidal action in [%] 28 DAT against Poa annua L. [7]: 30%
